Results published in patent publication US20240270771A1, “Compound containing phosphate group, pharmaceutical composition containing same, preparation method therefor and use thereof” (SHANGHAI RAISING PHARMACEUTICAL CO., LTD., priority 2021, published 2024).

How the values were obtained:
[1] = Acute toxicity test, gavage to mice; type: in vivo, Kunming strain mice; details: male mice; for Body weight before administration (mean ± standard deviation): baseline before gavage 2000 mg/kg once a day; for Body weight on Day 7 (mean ± standard deviation) / Body weight on Day 14 (mean ± standard deviation): gavage 2000 mg/kg once a day
Description: CMC-Na (sodium carboxymethylcellulose) was purchased from Shanghai Sinopharm Chemical Reagent Co., Ltd.
The test animals were Kunming strain mice, 18-20 g, provided by Beijing Keao Xieli Feed Co., Ltd.
• 1) Preparation of 0.7% CMC-Na: 0.7 g CMC-Na was added with distilled water to prepare a 0.7 g/100 mL solution. • 2) The compound to be tested was added to 0.7% CMC-Na to prepare a 100 mg/mL suspension. • 3) Each test group comprised 10 mice, all of which were male. Each mouse was orally administered with the test compound (2000 mg/kg) by gavage, once a day, for a cumulative period of 15 days. […] The body weights were recorded on the day of administration, days 7 and 14. 2.3. Test results

[2] = tested on: scopolamine-induced acute memory dysfunction model; assay: Jumping stand test, scopolamine-induced acute memory dysfunction model; type: in vivo, ICR mice; details: scopolamine 2 mg/kg i.p., compound 200 mg/kg gavage once a day 3 weeks; for Number of errors: model group 1.7 ± 0.5; for Latency period: model group 68.5 ± 80.0
Description: (§1) The mice employed in the present test were purchased from Xipuer-BIKAI Laboratory Animal Co., Ltd., and they were SPF grade ICR mice, 3-4 weeks old, weighing 16-18 g.
Scopolamine hydrobromide trihydrate was purchased from aladdin, Product No.: S107418; Purity: 98%.
(§2) Test article preparation: 100 mg of the compound to be tested was weighed and added to 10 mL of 0.7% CMC-Na to prepare a 10 mg/mL suspension for use.
(§3) The laboratory mice were randomly divided into groups (9 or 10 mice per group). The mice in each group were administrated at a dosage of 0.2 mL/10 g body weight by oral gavage once a day for three weeks.
(§4) The laboratory animals were administered by gavage for 3 consecutive weeks according to the above administration dosage/specification. Training was started on the last day of administration, and the test was conducted 24 hours later.
The laboratory animals were administered by gavage for 3 weeks, and scopolamine (mouse: 2 mg/kg) was injected intraperitoneally 0.5 hour after the last dose. The animals were trained with YLS-3 TB jumping stand detector and tested for memory acquisition function after 24 hours. The latency period (the time from the start of counting to the first time of jumping off the stand) and the number of errors (the number of electric shock) were recorded.
(§5) The YLS-3 TB jumping stand detector were divided into five compartments by transparent boards. The bottom of the compartment was covered with a copper grid and applied with a voltage of 50 V A rubber pad stand with a height of 3.5 cm and a diameter of 3.5 cm was placed in each compartment to serve as a safe area for mice to avoid electric shock. Training of laboratory mice before the formal test: the laboratory mice were placed in the small compartment with a stand to get familiar with the environment for 5 min (the five compartments were connected), and then electrified for stimulation (all the laboratory mice were on the grid at this time), at the voltage of 50 V and current of 1.00 mA. Mice have the habit of jumping from a high place. If they jump, they will be shocked to produce memory. The current was applied for 5 min, which served as the training process.
Testing: the animals were put on the stand in the jumping compartment one by one. The time interval for putting each animal was 5 s. After the first animal was put on the stand, the electricity was applied immediately. The electricity was applied for 6 min. At the end of applying electricity, data were printed, and the latency period (the time from the start of counting to the first time of jumping off the stand) and the number of errors (the number of electric shock during the testing period) were recorded. […]

[3] = tested on: sodium nitrite-induced hypoxic memory impairment model; assay: Jumping stand test, sodium nitrite-induced hypoxic memory impairment model; type: in vivo, ICR mice; details: sodium nitrite 120 mg/kg s.c., compound 200 mg/kg gavage once a day 3 weeks; for Number of errors: model group 1.4 ± 0.7; for Latency period: model group 93.8 ± 90.25
Description: as §1
Sodium nitrite (NaNO2) was purchased from Sinopharm Chemical Reagent Co., Ltd.; Product No.: 10020018; Specification: analytical grade.
as §2, §3, §4
The laboratory animals were administered by gavage for three weeks. One hour after the last administration, the animals were trained with YLS-3 TB jumping stand detector. After the training, sodium nitrite (mouse: 120 mg/kg) was injected subcutaneously (in the neck) immediately. The jumping stand test was conducted 24 hours later. The latency period (the time from the start of counting to the first time of jumping off the stand) and the number of errors (the number of electric shock) were recorded.
as §5
Testing: the animals were put on the stand in the jumping compartment one by one. The time interval for putting each animal was 5 s. After the first animal was put on the stand, the electricity was applied immediately. The electricity was applied for 6 min. At the end of applying electricity, data were printed, and the latency period (the time from the start of counting to the first time of jumping off the stand) and the number of errors (the number of electric shock during the testing period) were recorded. Due to the different time of putting the animal in, the time difference can be subtracted according to the actual time of putting the animal.

[4] = tested on: memory reproduction disorder model induce by ethanol; assay: Dark avoidance test, memory reproduction disorder model induced by ethanol; type: in vivo, ICR mice; details: 45% ethanol 0.1 mL/10 g gavage, compound 200 mg/kg gavage once a day 3 weeks; for Number of errors: model group 2.4 ± 1.7; for Latency period: model group 118.4 ± 106.9
Description: as §1
Anhydrous ethanol: Shanghai Titan Technology Co., Ltd.; Product No.: G73537B; Purity: >99.7%.
as §2, §3
The laboratory mice animals were administered by gavage for three weeks. One hour after the last administration, they were trained with the YLS-17B dark avoidance tester. The test was performed 24 h later. A 45% ethanol solution (0.1 mL/10 g) was administered by oral gavage 30 min before the test. The latency period (the time from the start of counting to the first time of entering the dark compartment) and the number of errors (number of electric shocks) of the animals were recorded.
The activity box of the dark avoidance automatic tester comprises two compartments (bright and dark), there is a hole between the two compartments, the bottom of the box is covered by a copper grid, and the animals normally go into the dark compartment. Before the formal test, the laboratory mice were trained by placing the animals in the bright compartment with their backs facing the entrance of the hole, to get familiar with the environment for 5 min, and then the copper grid in the dark compartment was electrified for stimulation at a voltage of 50 V and a current of 1.00 mA (which can be adjusted according to the actual situation). When the animals received electric shock, they entered the bright compartment, or went back and forth between the two compartments. The current was continuously applied for 5 min, which served as the training process.
Testing: the mice modeled with ethanol were put into the bright box one by one with their backs facing the entrance of the hole, and the time interval between putting each animal was 5 s. After the first animal was put into the bright compartment, the electricity was applied immediately. The electricity was applied for 6 min. At the end of applying electricity, data were printed, and the latency period (the time from the start of counting to the first time of entering the dark compartment) and the number of errors (the number of electric shock during the testing period) were recorded. Due to the different time of putting the animal in, the time difference can be subtracted according to the actual time of putting the animal.
Statistical analysis: all data were expressed as the mean value±standard deviation, and SPSS software was used for analysis.

| SMILES | Body weight before administration (mean ± standard deviation) [1] | Body weight on Day 7 (mean ± standard deviation) [1] | Body weight on Day 14 (mean ± standard deviation) [1] | Number of errors [2] | Latency period [2] | Number of errors [3] | Latency period [3] | Number of errors [4] | Latency period [4] |
| --- | --- | --- | --- | --- | --- | --- | --- | --- | --- |
| CCCC(CCC)C(=O)S/C(CCOP(=O)(O)O)=C(/C)N(C=O)Cc1cnc(C)nc1N [Compound 1, (Z)—S-(2-(N-((4-amino-2-methylpyrimidin-5-yl)methyl)formamido)-5-(phosphonooxy)pent-2-en-3-yl) 2-propylpentanethioate] | 31.4 ± 1.1 g | 35.5 ± 1.0 g | 36.7 ± 1.2 g | 0.8 ± 0.8 | 180.0 ± 105.9 s | 0.4 ± 0.7 | 228.8 ± 155.9 s | 1.0 ± 1.25 | 229.8 ± 90.0 s |
| CCC(CC)C(=O)S/C(CCOP(=O)(O)O)=C(/C)N(C=O)Cc1cnc(C)nc1N [Compound 2, (Z)—S-(2-(N-((4-amino-2-methylpyrimidin-5-yl)methyl)formamido)-5-(phosphonooxy)pent-2-en-3-yl) 2-ethylbutanethioate] | – | – | – | 0.9 ± 0.7 | 173.2 ± 98.7 s | 0.6 ± 0.8 | 210.4 ± 117.3 s | 1.2 ± 1.3 | 217.4 ± 96.6 s |
| C/C(=C(\CCOP(=O)(O)O)SC(=O)c1ccco1)N(C=O)Cc1cnc(C)nc1N [Compound 9, (Z)—S-(2-(N-((4-amino-2-methylpyrimidin-5-yl)methyl)formamido)-5-(phosphonooxy)pent-2-en-3-yl) furan-2-carbothioate] | 32.1 ± 1.7 g | 35.7 ± 1.4 g | 36.3 ± 1.7 g | – | – | 0.6 ± 0.7 | 209.3 ± 110.4 s | 1.0 ± 1.0 | 216.1 ± 76.8 s |
